In one assay the test system is total serum cholesterol. Nature of the assay: Reduction of serum cholesterol level (total serum cholesterol, Liebermann-Burchard auto-analyzer). The format is in vivo, male laboratory rats. The conditions noted are these: rat. On the procedure:
1. Reduction of serum cholesterol level
85 male laboratory rats having a body weight of about 250 gm. The animals were individually kept in Makrolon-cages under controlled conditions. Food and water were freely accessible to the animals at all times, except on the day on which the blood samples were taken.
The test compounds were administered once daily per os by means of an esophageal sound.
Determination of total cholesterol in serum (mgm/100 ml) with the auto-analyzer according to Liebermann-Burchard (see J. Levine et al, Technicon-Symposium, 1967, Vol. 1, pg. 25).
The total serum cholesterol was determined in all test animals prior to the beginning of the test (day O), as well as on the 8th, 14th and 21st day. The blood sample was taken from the retrobulbar venous plexus. The animals were fasted for about 16 hours prior to determination of the serum cholesterol.

Assay [1] deals with adult laboratory mice of the NMRI-strain. The assay is described as follows: CNS-Depression: Ataxia (atactic walking). The assay is classed as in vivo. The conditions noted are these: po, mouse; dose at which ataxia occurs in 50% of the animals; Probit-method. On the procedure:
A statistically significant number of adult laboratory mice of the NMRI-strain are used as the test animals. The test compound is administered perorally as a suspension in tylose by means of an esophageal sound, and the treated animal is observed for evidence of atactic (uncoordinated) walking. The test is repeated at varying dosage levels, and a median effective dose (ED50) is determined by the Probit-method, i.e. the dose at which ataxia occurs in 50% of the animals.

For assay [2] the test system is unchanged. The assay is described as follows: CNS-Depression: Sliding test (loss of holding reflex on inclined glass plate). The assay is classed as in vivo. The conditions noted are these: po, mouse; dose at which 50% of animals begin to slide off the glass plate; Probit-method. On the procedure:
A statistically significant number of adult laboratory mice of the NMRI-strain are used as test animals. The test compound is administered perorally as a suspension in tylose by means of an esophageal sound, and the animal is placed on an inclined plate of glass. If the administered dose of the test compound has a CHS-depressing effect upon the animal, the treated mouse loses its normal holding reflex and slides off the plate. The test is repeated at varying dosage levels, and a median effective dose (ED50) is determined by the so-called Probit-method, i.e. the dose at which 50% of the test animals begin to slide off the glass plate.

The mark [3] stands for this setting: day 0 (prior to the beginning of the test, baseline), group of 25 mgm/kg once daily per os.
Where [4] appears, read: day 8, 25 mgm/kg once daily per os.
Where [5] appears, read: day 14, 25 mgm/kg once daily per os.
Setting [6] is: day 21, 25 mgm/kg once daily per os.
[7] abbreviates: day 0 (prior to the beginning of the test, baseline), group of 50 mgm/kg once daily per os.
Setting [8] is: day 8, 50 mgm/kg once daily per os.
Where [9] appears, read: day 14, 50 mgm/kg once daily per os.
The mark [10] stands for this setting: day 21, 50 mgm/kg once daily per os.

As a reminder, the ED50 is the dose that gives a 50% effect, or the effect in half of the subjects. High values mean weaker potency, low ones greater potency. For `CC(Cc1ccc2c(c1)OCO2)N1CCN(c2ccccc2Cl)CC1` (stereo not drawn) [Compound C, n-[1-(3,4-methylenedioxy-phenyl)-propyl(2)]-N'-(2-chlorophenyl)-piperazine], the “Average value of total serum cholesterol” value with total serum cholesterol (setting [3]) was found to be 38.3 mgm/100 ml; in the assay with total serum cholesterol (setting [4]), 31.7 mgm/100 ml; with total serum cholesterol (setting [5]), 24.3 mgm/100 ml; in the assay with total serum cholesterol (setting [6]), 26.2 mgm/100 ml. Besides, the ED50 in assay [1] and in assay [2] was 2.2 mg/kg throughout.

Take `CC(Cc1ccc2c(c1)OCO2)N1CCN(c2ccc(Cl)cc2Cl)CC1` (stereo not drawn) [A, n-[1-(3,4-methylenedioxy-phenyl)-propyl-(2)]-N'-(2,4-dichloro-phenyl)-piperazine]: the “Average value of total serum cholesterol” value was 96.7 mgm/100 ml in the assay on total serum cholesterol (setting [3]), 27.5 mgm/100 ml with total serum cholesterol (setting [4]), 12.5 mgm/100 ml with total serum cholesterol (setting [5]) and 13.0 mgm/100 ml in the assay on total serum cholesterol (setting [6]). Also, the median effective dose (ED50) in assay [1] worked out at 160 mg/kg; in assay [2], 190 mg/kg.

With `Cc1cccc(C)c1N1CCN(C(C)Cc2ccc3c(c2)OCO3)CC1` (stereo not drawn) [E, n-[1-(3,4-methylenedioxy-phenyl)-propyl(2)]-N'-(2,6-dimethyl-phenyl)-piperazine], the “Average value of total serum cholesterol” value is on record as 107.3 mgm/100 ml in the assay on total serum cholesterol (setting [7]), 71.2 mgm/100 ml in the assay on total serum cholesterol (setting [8]), 61.7 mgm/100 ml with total serum cholesterol (setting [9]) and 63.5 mgm/100 ml in the assay with total serum cholesterol (setting [10]). For the same compound, the ED50 in assay [1] turned out to be 105 mg/kg; in assay [2], 25 mg/kg.

As to `COc1ccccc1N1CCN(C(C)Cc2ccc3c(c2)OCO3)CC1` (stereo not drawn) [Compound D], the “Average value of total serum cholesterol” value in the assay with total serum cholesterol (setting [7]) amounted to 112.9 mgm/100 ml; with total serum cholesterol (setting [8]), 87.3 mgm/100 ml; in the assay with total serum cholesterol (setting [9]), 86.3 mgm/100 ml; in the assay on total serum cholesterol (setting [10]) it was 82.1 mgm/100 ml. Further, the ED50 in assay [1] is 39 mg/kg; in assay [2], greater than 14 mg/kg.

As for `COc1ccc(N2CCN(C(C)Cc3ccc4c(c3)OCO4)CC2)c(C)c1` (stereo not drawn) [B, n-[1-(3,4-methylenedioxy-phenyl)-propyl(2)]-N'-(2-methyl-4-methoxy-phenyl)-piperazine], the “Average value of total serum cholesterol” value with total serum cholesterol (setting [3]) stood at 97.9 mgm/100 ml; in the assay with total serum cholesterol (setting [4]) it was 35.2 mgm/100 ml; in the assay on total serum cholesterol (setting [5]), 21.3 mgm/100 ml; in the assay on total serum cholesterol (setting [6]), 21.2 mgm/100 ml. In addition, the 50% effective dose (ED50) in assay [1] is 120 mg/kg; in assay [2], 960 mg/kg.

The values above are taken from patent publication US4094980A, “N-[1-(3',4'-methylenedioxy-phenyl)-propyl-(2)]-N'-phenyl-piperazines and salts thereof” (Boehringer Ingelheim GmbH, priority 1974, dated 1978).
